The record followed here is patent publication US20220281825A1 (priority 2016, published 2022).

One data set concerns GTOV-p. The data set is described as follows: organism not typed. The conditions noted are these: Vero, 24 h, read-out: GTOV-p EC50 (nM). The data set is classed as cell-based, Guanarito (GTOV).
The test system of the next data set is MACV-p. In words: organism not typed. The data set is classed as cell-based, Machupo (MACV). The conditions noted are these: Vero, 24 h, read-out: MACV-p EC50 (nM).
Another data set has as its system JUNV-p. The data set is described as follows: organism not typed. Particulars: Vero, 24 h, read-out: JUNV-p EC50 (nM). It is filed as cell-based, Junin (JUNV).
The conditions of data set [1]: guinea pig, 1 h, pH 7.4.
The conditions of data set [2]: guinea pig, in vivo, 10 mg/kg.
Another data set has as its system LCMV. In words: microbe, parasite or virus in culture. The data set is classed as cell-based, lymphocytic choriomeningitis virus (LCMV). Particulars: for EC90: Mammarenavirus choriomeningitidis, read-out: LCMV EC90 uM.
Another data set deals with LASV. In words: organism not typed. It is filed as cell-based, Lassa (LASV). The conditions noted are these: for EC50: 120 h, read-out: LASV EC50 uM.
The conditions of data set [3]: 1 h, pH 7.4.
The conditions of data set [4]: 1 h, pH 7.4. The source holds these as a separate data set.
The test system of a further data set is TCRV-p. The data set is described as follows: organism not typed. Particulars: Vero, 24 h, read-out: TCRV-p EC50 (nM). It is filed as cell-based.
Another data set has as its system LASV-p. The data set is described as follows: organism not typed. The data set is classed as cell-based, Lassa (LASV). The conditions noted are these: Vero, 24 h, read-out: LASV-p EC50 (nM).
The next data set deals with JUNV. The data set is described as follows: organism not typed. The conditions noted are these: for EC50: 120 h, read-out: JUNV EC50 uM. The data set is classed as cell-based, Junin (JUNV).
The conditions of data set [5]: 1 h, pH 7.4. This is another data set of the same source.
The nature of a further data set: in vivo. Particulars: guinea pig, po, 10 mg/kg.
For data set [6], the system named is native replicating Tacaribe (TCRV) virus. The data set is described as follows: microbe, parasite or virus in culture. Particulars: for EC50: Mammarenavirus tacaribeense, Vero, 120 h, read-out: TCRV EC50 uM. The data set is classed as cell-based.
A further data set deals with VSV-p. The data set is described as follows: microbe, parasite or virus in culture. The data set is classed as cell-based. The conditions noted are these: Vesicular stomatitis virus, Vero, 24 h, read-out: VSV-p EC50 (nM).
For data set [7] the following is noted: 1 h, pH 7.4. The source holds these as a separate data set.
A further data set can be described thus: in vitro. Particulars: African green monkey.
A further data set has as its target hERG channel (Homo sapiens, UniProt Q12809). Particulars: pH 7.4.

Chain of hERG channel (Q12809 whole entry): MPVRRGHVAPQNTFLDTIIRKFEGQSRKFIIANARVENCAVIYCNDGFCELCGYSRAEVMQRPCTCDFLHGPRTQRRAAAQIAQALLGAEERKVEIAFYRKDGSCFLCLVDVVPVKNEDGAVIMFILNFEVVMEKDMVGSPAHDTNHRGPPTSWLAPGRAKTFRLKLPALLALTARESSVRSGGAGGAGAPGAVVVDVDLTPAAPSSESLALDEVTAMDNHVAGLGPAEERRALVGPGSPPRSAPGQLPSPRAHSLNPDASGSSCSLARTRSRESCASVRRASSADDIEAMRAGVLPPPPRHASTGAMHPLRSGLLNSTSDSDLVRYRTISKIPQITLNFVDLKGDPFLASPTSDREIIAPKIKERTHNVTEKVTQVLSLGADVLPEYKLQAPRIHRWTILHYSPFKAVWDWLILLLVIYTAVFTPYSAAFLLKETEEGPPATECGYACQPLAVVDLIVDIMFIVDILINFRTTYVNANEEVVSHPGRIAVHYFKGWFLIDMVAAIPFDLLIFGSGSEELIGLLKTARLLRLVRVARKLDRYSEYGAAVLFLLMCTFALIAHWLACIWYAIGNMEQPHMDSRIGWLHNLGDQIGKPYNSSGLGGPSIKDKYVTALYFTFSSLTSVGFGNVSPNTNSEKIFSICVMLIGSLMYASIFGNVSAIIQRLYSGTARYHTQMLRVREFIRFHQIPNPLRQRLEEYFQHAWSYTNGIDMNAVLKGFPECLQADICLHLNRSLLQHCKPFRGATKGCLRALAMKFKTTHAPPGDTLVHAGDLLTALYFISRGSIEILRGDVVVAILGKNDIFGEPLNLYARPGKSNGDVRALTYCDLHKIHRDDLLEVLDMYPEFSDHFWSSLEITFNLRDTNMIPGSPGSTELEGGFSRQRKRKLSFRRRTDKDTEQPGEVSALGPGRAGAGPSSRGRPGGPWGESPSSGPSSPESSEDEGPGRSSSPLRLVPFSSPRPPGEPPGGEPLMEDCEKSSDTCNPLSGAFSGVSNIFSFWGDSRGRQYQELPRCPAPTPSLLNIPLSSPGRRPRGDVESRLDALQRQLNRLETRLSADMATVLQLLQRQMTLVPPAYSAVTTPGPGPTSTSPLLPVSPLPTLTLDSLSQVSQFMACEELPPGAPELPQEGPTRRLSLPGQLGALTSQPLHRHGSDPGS

Usually EC50 stands for the midpoint of the concentration-response curve. One may read the EC90 as the concentration at which the effect reaches the 90% level. The Cmax is the highest concentration seen after dosing. The Tmax is the time from dosing to the highest level. For orientation: half-life means the time needed for the level to fall by half in the phase considered. Regarding `CC(C)Oc1ccc(-n2cnc3ccc(-c4ccc(C(C)(C)O)cc4)cc32)cc1` [Example A17, 2-(4-{1-[4-(propan-2-yloxy)phenyl]-1H-1,3-benzodiazol-6-yl}phenyl)propan-2-ol], the concentration giving a half-maximal response (EC50) came out at 0.52 nM in the data set with GTOV-p; 0.2 nM in the data set on MACV-p; 0.2 nM with JUNV-p; 0.06 µM in the data set with LASV; 0.6 nM in the data set on TCRV-p; 1.1 nM in the data set on LASV-p. The EC50 in the data set with JUNV is 0.115 µM; in data set [6], 0.023 µM; in the data set with VSV-p, more than 1000 nM. Besides, in data set [1], the “Percent parent compound remaining at 60 minutes in liver microsomes, Guinea” value (shortened to “Percent parent compound remaining … Guinea”) is 62%. In data set [2], the oral exposure entry is recorded as “demonstrated oral exposure”. Further, the “T ½” value in data set [2] (po) was 4 to 6 h. Also, the “LCMV SI90” value with LCMV is on record as 12. The EC90 in the data set on LCMV was 0.71 µM. Also, the “LASV SI” value in the data set with LASV is 249. Besides, the “Percent parent compound remaining at 60 minutes in liver microsomes, Rat” value (“Percent parent compound remaining … Rat” below) in data set [3] amounted to 86%. Further, the “Percent parent compound remaining at 60 minutes in liver microsomes, Monkey” value (“Percent parent compound remaining … Monkey” for short) in [4] stood at 7%. The “JUNV SI” value in the data set with JUNV was determined as 82. The “Percent parent compound remaining at 60 minutes in liver microsomes, Human” value (“Percent parent compound remaining … Human” for short) in data set [5] was 69%. In “in vivo”, this compound had a Cmax of 639 ng/mL. For the same compound, the time of peak concentration (Tmax) in the data set “in vivo” was found to be 1 h. In the data set “in vivo”, this compound came in with a half-life of 4 to 6 h. For the same compound, the “TCRV SI50” value in data set [6] is reported as 609. In addition, in [7], the “Percent parent compound remaining at 60 minutes in liver microsomes, Mouse” value is on record as 44%. In the data set “in vitro”, this compound yielded a CC50 of 5810 nM.
Regarding `CC(C)Oc1ccc(-n2cnc3ccc(-c4ccc5[nH]ccc5c4)cc32)cc1` [Example A24, 6-(1H-indol-5-yl)-1-[4-(propan-2-yloxy)phenyl]-1H-1,3-benzodiazole], the EC50 in the data set on GTOV-p turned out to be 0.3 nM; in the data set with MACV-p, 3.7 nM; with JUNV-p, 1.7 nM; in the data set with LASV, 0.06 µM; in the data set with TCRV-p, 15.9 nM; with LASV-p, 0.91 nM. The figures for the EC50 (with JUNV; in [6]) were 0.56 µM and 0.01 µM, respectively. Also, the “Percent parent compound remaining … Guinea” value in data set [1] came out at 0%. Further, the “LCMV SI90” value with LCMV is listed as 18. Also, in the data set on LCMV, the EC90 was 0.56 µM. The “LASV SI” value with LASV came to 527. Also, in data set [3], the “Percent parent compound remaining … Rat” value was found to be 32%. In the data set on JUNV, the “JUNV SI” value amounted to 53. The “Percent parent compound remaining … Human” value in [5] turned out to be 63%. The “TCRV SI50” value in data set [6] stood at 7100. In the data set “in vitro”, this compound returned a CC50 of 71300 nM.
In the case of `CC(C)Oc1ccc(-c2ccc3ncc(-c4ccc(OC(C)C)cc4)n3c2)cc1` [Example C2, 3,6-bis[4-(propan-2-yloxy)phenyl]imidazo[1,2-a]pyridine], the “hERG % Inhibition” value on hERG channel is listed as 89%. Moreover, in [2], the oral exposure entry is reported as “demonstrated oral exposure”. For the same compound, in the data set “in vivo”, the concentration peaked (Cmax) at 156 ng/mL and the time of peak concentration (Tmax) came to 1 h.
For the compound `Cc1cc2nnn(-c3ccc(OC(C)C)cc3)c2cc1-c1ccc(OC(C)C)cc1` [Example B15, 5-methyl-1,6-bis[4-(propan-2-yloxy)phenyl]-1H-1,2,3-benzotriazole], the half-maximal effective concentration (EC50) with GTOV-p was 0.18 nM; in the data set with MACV-p, 0.25 nM; with JUNV-p, 0.02 nM; in the data set with TCRV-p, 0.37 nM; in the data set on LASV-p, 0.95 nM; in the data set with VSV-p, more than 10000 nM. The “hERG % Inhibition” value on hERG channel is less than 10%. Also, the CC50 in “in vitro” is more than 100000 nM.
With `CC(C)Oc1ccc(-c2ccc3ncn(-c4ccc(OC(C)C)cc4)c3n2)cc1` [Example B2, 3,5-bis[4-(propan-2-yloxy)phenyl]-3H-imidazo[4,5-b]pyridine], the “hERG % Inhibition” value at hERG channel was less than 10%.
For `Cc1cc2ncn(-c3ccc(OC(C)C)cc3)c2cc1-c1ccc(OC(C)C)cc1` [Example A30, 5-methyl-1,6-bis[4-(propan-2-yloxy)phenyl]-1H-1,3-benzodiazole], the EC50 in the data set with GTOV-p was found to be 0.21 nM; in the data set on MACV-p it was 0.21 nM; in the data set on JUNV-p it was 0.03 nM; in the data set with TCRV-p, 0.07 nM; in the data set with LASV-p, 0.53 nM; with VSV-p it was 5310 nM. Besides, the “hERG % Inhibition” value on hERG channel was less than 10%. Also, the CC50 in the data set “in vitro” was 3670 nM.
For `COc1cc2ncn(-c3ccc(OC(C)C)cc3)c2cc1-c1ccc(OC(C)C)cc1` [Example A31, 5-methoxy-1,6-bis[4-(propan-2-yloxy)phenyl]-1H-1,3-benzodiazole], the EC50 worked out at 0.9 nM with MACV-p, 0.18 nM in the data set on JUNV-p, 0.7 nM with TCRV-p and 2.6 nM in the data set with LASV-p. Also, the “hERG % Inhibition” value on hERG channel was less than 10%. For the same compound, in data set [1], the “Percent parent compound remaining … Guinea” value was found to be 100%. The “Percent parent compound remaining … Monkey” value in data set [4] was determined as 40%. For the same compound, the “Percent parent compound remaining … Human” value in data set [5] came to 93%. Moreover, the CC50 in the data set “in vitro” worked out at 3790 nM.
Turning to `OC1(c2ccc(-c3ccc4ncc(-c5ccc(C6(O)CCC6)cc5)n4c3)cc2)CCC1` [Example C47, 1-(4-{3-[4-(1-hydroxycyclobutyl)phenyl]imidazo[1,2-a]pyridin-6-yl}phenyl)cyclobutan-1-ol], the concentration for a half-maximal effect (EC50) in the data set with GTOV-p is 0.44 nM; in the data set with MACV-p it was 0.5 nM; with JUNV-p it was 0.55 nM; in the data set with TCRV-p, 1.17 nM; in the data set on LASV-p it was 1.8 nM; in the data set on VSV-p, 4340 nM. Moreover, the CC50 in the data set “in vitro” is 7860 nM.
On to `CC(C)Oc1ccc(-c2ccc3nnn(-c4ccc(OC(C)C)cc4)c3c2)cc1` [Example B12, 1,6-bis[4-(propan-2-yloxy)phenyl]-1H-1,2,3-benzotriazole], for which the “hERG % Inhibition” value on hERG channel was 17%.
With `CC(C)Oc1ccc(-c2cnc3ccc(-c4ccc(C5(O)CC5)cc4)cn23)cc1` [Example C27, 1-(4-{3-[4-(propan-2-yloxy)phenyl]imidazo[1,2-a]pyridin-6-yl}phenyl)cyclopropan-1-ol], the EC50 in the data set on GTOV-p is 0.24 nM; with MACV-p it was 0.68 nM; in the data set on JUNV-p, 0.51 nM; with TCRV-p, 0.58 nM; in the data set with LASV-p it was 0.66 nM; in the data set with VSV-p, more than 10000 nM. Also, the CC50 in the data set “in vitro” turned out to be 5280 nM.
`CC(C)Oc1ccc(-n2cnc3ccc(-c4ccc(C(C)(C)O)cc4)nc32)cc1` [Example B1, 2-(4-{3-[4-(propan-2-yloxy)phenyl]-3H-imidazo[4,5-b]pyridin-5-yl}phenyl)propan-2-ol]: the concentration giving a half-maximal response (EC50) in the data set with GTOV-p is 0.88 nM; in the data set on MACV-p, 7.09 nM; with JUNV-p it was 4.95 nM; in the data set on TCRV-p, 28 nM; with LASV-p it was 1.61 nM; with VSV-p it was more than 1000 nM. In the data set “in vitro”, this compound had a CC50 of 12200 nM.
In the case of `CC(C)Oc1ccc(-c2cnc3ccc(-c4ccc(C(C)(C)O)cc4)cn23)cc1` [Example C1, 2-(4-{3-[4-(propan-2-yloxy)phenyl]imidazo[1,2-a]pyridin-6-yl}phenyl)propan-2-ol], the 50% effective concentration (EC50) with GTOV-p came out at 0.08 nM; in the data set with MACV-p, 0.7 nM; with JUNV-p, 0.82 nM; with LASV it was 0.025 µM; in the data set with TCRV-p, 1.45 nM; in the data set with LASV-p it was 0.59 nM. For the same compound, the EC50 in the data set on JUNV is 0.055 µM; in data set [6], 0.003 µM; with VSV-p it was more than 1000 nM. The “hERG % Inhibition” value at hERG channel was 55%. In addition, the “Percent parent compound remaining … Guinea” value in data set [1] worked out at 42%. For the same compound, the “LCMV SI90” value in the data set with LCMV worked out at 37. For the same compound, the EC90 in the data set with LCMV was 0.82 µM. For the same compound, in the data set with LASV, the “LASV SI” value was determined as 921. For the same compound, the “Percent parent compound remaining … Rat” value in data set [3] came out at 77%. In addition, in [4], the “Percent parent compound remaining … Monkey” value worked out at 16%. Besides, in the data set on JUNV, the “JUNV SI” value was determined as 352. The “Percent parent compound remaining … Human” value in [5] worked out at 76%. Also, the “TCRV SI50” value in [6] amounted to 2500. In addition, the “Percent parent compound remaining at 60 minutes in liver microsomes, Mouse” value in data set [7] is given as 22%. Further, the CC50 in “in vitro” was determined as 7520 nM.
Take `CC(C)Oc1ccc(-c2ccc3ncc(-c4ccc(C5CC5)cc4)n3c2)cc1` [Example C30, 3-(4-cyclopropylphenyl)-6-[4-(propan-2-yloxy)phenyl]imidazo[1,2-a]pyridine]: the EC50 is 0.05 nM in the data set with GTOV-p; 1.08 nM in the data set with MACV-p; 0.82 nM with JUNV-p; 3.83 nM in the data set on TCRV-p; 1.02 nM with LASV-p; 6960 nM in the data set on VSV-p. The CC50 in the data set “in vitro” was determined as 3980 nM.
